Values joined by “and” are separate entries in the source; they are usually repeats but may differ in a detail not shown here. Equal entries are not always repeated.
Experiments:
[1] = Struck et al. 1966; cited from earlier work
P388 leukemia = experiment: in vivo ip P388 lymphocytic leukemia mouse model (increase in lifespan); parameters: species or system mouse (B6D2F1); details: ip Days 1 through 5; figures separated by slashes are from separate experiments; ≥25 percent ILS considered active
Source text: P388 lymphocytic leukemia is currently the most widely used animal tumor model for screening for antitumor agents and for detailed evaluation of active compounds. This tumor system is widely accepted as an antitumor agent screening tool because it is sensitive to virtually all of the clinically active antineoplastic agents; quantitative and reproducible; amenable for large-scale screening; and predictive for activity in other animal tumor models.
(§1) 10^6 P388 leukemia cells are inoculated ip in B6D2F1 mice. Twenty-four hours later, if the tumor inoculum proves to be free of bacterial contamination (as determined by 24 hours incubation in thioglycollate broth), animals are randomized into groups of 6 and housed in shoebox cages. The compound to be evaluated is dissolved in a minimal volume of either N,N-dimethylacetamide (DMA) or 95% ethanol (depending upon solubility). An equal volume of saline is added; if the drug comes out of solution an equal volume of polyethoxylated castor oil is added and then saline qs to a concentration such that the desired dose is delivered in 0.5 ml. The final concentration of DMA, ethanol and polyethoxylated castor oil is 10 percent. […] Animals are monitored daily for mortality and experiments are terminated after 45 days. […]

[2] = maximally tolerated dose in mice, ip qDx5 regimen (P388 experiment); assay type: in vivo, mouse (B62DF female); details: B62DF female mice
Procedure: as §1, with “percent. Dilutions for lower doses are made with saline so there is a decreasing proportion of organic solvents in the vehicle with decreasing dosage These vehicles provide soluble formulations (or suspensions). Formulations are prepared immediately prior to injection. The compound is administered ip on Days 1 through 5 (i.e. treatment is initiated 24 hrs after tumor inoculation). Each experiment includes three groups of 6 animals as untreated controls and animals treated with a positive control, cisplatin, at two dose levels.” for “percent.”

B16 melanoma = experiment: in vivo ip B16 melanoma assay (increase in lifespan); parameters: species or system mouse (B6D2F1); details: ip daily for ten (10) days; ILS of ≥25% indicates activity
Procedure: (§2) In this system, groups of eight B6D2F1 mice are inoculated ip with 0.5 ml of a 10% (w:v) brei of B16 melanoma prepared from pooled sc tumors excised at 14-21 days from […] donor mice. Daily treatment is begun 24 hours after tumor implantation and is continued daily for ten (10) days. The route of drug administration is ip. The mice are monitored daily for survival for sixty (60) days. Antitumor activity is assessed by prolongation of median survival time. An ILS of ≥25% indicates activity in this tumor model.

[3] = maximally tolerated dose in mice, ip qD x 10 regimen (B16 experiment); assay type: in vivo, mouse (B6D2F1); details: B6D2F1 mice, ip qD × 10 regimen
Procedure: as §2
^(b) maximally tolerated dose for B6D2F1 mice on a ip qD ×

Molecule | cytotoxic activity (in words) [1] | ILS (max): maximum increase in lifespan, mice bearing ip P388 leukemia (P388 leukemia) | MTD (maximally tolerated dose) [2] | ILS: maximum increase in lifespan, mice bearing ip B16 melanoma (B16 melanoma) | MTD (maximally tolerated dose) [3]
c1ccc(P(CCP(c2ccccc2)c2ccccc2)c2ccccc2)cc1 [1,2-bis(diphenylphosphino)ethane] | cytotoxic activity | – | – | – | –
Dichlorobis[1,2-bis(diethylphosphino)ethane]digold [Compound 2] | – | 29% | 16 mg/kg | – | –
Dichlorobis[1,2-bis(diphenylphosphino)ethane]digold [Compound 1] | – | 81% and 91% and 55% | 8 mg/kg | 35% | 4 mg/kg

From patent US4764509A, “Pharmaceutical compositions containing di-gold phosphine” (SmithKline Beckman Corporation, priority 1987, dated 1988)
